Converted amounts (≈) assume the structure as drawn. The source made the active and inactive calls. No cut-off for these calls is given here. Where a SMILES comes first, the peptide text is derived from it. Bridges are numbered along the chain shown (N, C = ends). [ ]: non-standard residue; d: D form. d(aIle) = CC[C@H](C)[C@@H](N)C(=O)O; dNMeF = CN[C@H](Cc1ccccc1)C(=O)O; Orn = NCCC[C@H](N)C(=O)O
Tests used:
Assay type in all cases: functional
[1] = tested on: Escherichia coli; experiment: Antibacterial activity against Escherichia coli ATCC 25922 after 24 hrs by broth microdilution method
[2] = tested on: Bacillus subtilis; experiment: Antibacterial activity against Bacillus subtilis ATCC 6051 after 24 hrs by broth microdilution method
[3] = tested on: Staphylococcus aureus; experiment: Antibacterial activity against Staphylococcus aureus ATCC 29213 after 24 hrs by broth microdilution method
[4] = tested on: Pseudomonas aeruginosa; experiment: Antibacterial activity against Pseudomonas aeruginosa ATCC 27853 after 24 hrs by broth microdilution method

| SMILES | MIC ([1]; ATCC 25922, 24 h) | MIC ([2]; ATCC 6051, 24 h) | MIC ([3]; ATCC 29213, 24 h) | MIC ([4]; ATCC 27853, 24 h) | MIC [1] | MIC [4] | MIC [3] | MIC [2] |
| --- | --- | --- | --- | --- | --- | --- | --- | --- |
| CC[C@H](C)[C@H](NC(=O)[C@@H](Cc1ccccc1)NC)C(=O)N[C@@H](CCCCN)C(=O)N[C@H](CCCCN)C(=O)N[C@@H](C(=O)N[C@H](C(=O)N[C@@H](CO)C(=O)N[C@H]1C(=O)N[C@@H](CCCCN)C(=O)N[C@@H](CCCCN)C(=O)N[C@@H]([C@@H](C)CC)C(=O)O[C@H]1C)[C@@H](C)CC)[C@@H](C)CC | 32 µg/mL (≈ 24.3 µM) | 8 µg/mL (≈ 6.08 µM) | 32 µg/mL (≈ 24.3 µM) | 64 µg/mL (≈ 48.7 µM) |  |  |  |  |
| CC[C@H](C)[C@H](NC(=O)[C@@H](Cc1ccccc1)NC)C(=O)N[C@@H](CO)C(=O)N[C@H](CCC(N)=O)C(=O)N[C@@H](C(=O)N[C@H](C(=O)N[C@@H](CO)C(=O)N[C@H]1C(=O)N[C@@H](C)C(=O)N[C@@H](CC/N=C(\N(C)C)N2CCOCC2)C(=O)N[C@@H]([C@@H](C)CC)C(=O)O[C@H]1C)[C@@H](C)CC)[C@@H](C)CC |  | 4 µg/mL (≈ 3.01 µM) | 64 µg/mL (≈ 48.2 µM) |  | inactive | inactive |  |  |
| CC[C@H](C)[C@H](NC(=O)[C@@H](Cc1ccccc1)NC)C(=O)N[C@@H](CO)C(=O)N[C@H](CCCCN)C(=O)N[C@@H](C(=O)N[C@H](C(=O)N[C@@H](CCCCN)C(=O)N[C@H]1C(=O)N[C@@H](C)C(=O)N[C@@H](CCCN)C(=O)N[C@@H]([C@@H](C)CC)C(=O)O[C@H]1C)[C@@H](C)CC)[C@@H](C)CC | 128 µg/mL (≈ 103 µM) | 16 µg/mL (≈ 12.9 µM) |  | 128 µg/mL (≈ 103 µM) |  |  | inactive |  |
| CC[C@H](C)[C@H](NC(=O)[C@@H](Cc1ccccc1)NC)C(=O)N[C@@H](CCCCN)C(=O)N[C@H](CCCCN)C(=O)N[C@@H](C(=O)N[C@H](C(=O)N[C@@H](CCCCN)C(=O)N[C@H]1C(=O)N[C@@H](C)C(=O)N[C@@H](CCCN)C(=O)N[C@@H]([C@@H](C)CC)C(=O)O[C@H]1C)[C@@H](C)CC)[C@@H](C)CC (H-[dNMeF]IK[dK][d(aIle)]IK[dT]A[Orn]I; ester 8-C) | 32 µg/mL (≈ 24.9 µM) | 16 µg/mL (≈ 12.5 µM) | 256 µg/mL (≈ 199 µM) | 64 µg/mL (≈ 49.8 µM) |  |  |  |  |
| CC[C@H](C)[C@H](NC(=O)[C@@H](Cc1ccccc1)NC)C(=O)N[C@@H](CCCCN)C(=O)N[C@H](CCC(N)=O)C(=O)N[C@@H](C(=O)N[C@H](C(=O)N[C@@H](CCCCN)C(=O)N[C@H]1C(=O)N[C@@H](C)C(=O)N[C@@H](CCCN)C(=O)N[C@@H]([C@@H](C)CC)C(=O)O[C@H]1C)[C@@H](C)CC)[C@@H](C)CC (stereo in doubt) |  | 32 µg/mL (≈ 24.9 µM) |  |  | inactive | inactive | inactive |  |
| CC[C@H](C)[C@H](NC(=O)[C@@H](Cc1ccccc1)NC)C(=O)N[C@@H](CO)C(=O)N[C@H](CCCCN)C(=O)N[C@@H](C(=O)N[C@H](C(=O)N[C@@H](CO)C(=O)N[C@H]1C(=O)N[C@@H](C)C(=O)N[C@@H](CCCN)C(=O)N[C@@H]([C@@H](C)CC)C(=O)O[C@H]1C)[C@@H](C)CC)[C@@H](C)CC | 64 µg/mL (≈ 53.2 µM) | 2 µg/mL (≈ 1.66 µM) | 2 µg/mL (≈ 1.66 µM) | 256 µg/mL (≈ 213 µM) |  |  |  |  |
| CC[C@H](C)[C@H](NC(=O)[C@@H](Cc1ccccc1)NC)C(=O)N[C@@H](CCCCN)C(=O)N[C@H](CCCCN)C(=O)N[C@@H](C(=O)N[C@H](C(=O)N[C@@H](CO)C(=O)N[C@H]1C(=O)N[C@@H](C)C(=O)N[C@@H](CCCN)C(=O)N[C@@H]([C@@H](C)CC)C(=O)O[C@H]1C)[C@@H](C)CC)[C@@H](C)CC (H-[dNMeF]IK[dK][d(aIle)]IS[dT]A[Orn]I; ester 8-C) | 64 µg/mL (≈ 51.5 µM) | 4 µg/mL (≈ 3.22 µM) | 16 µg/mL (≈ 12.9 µM) | 64 µg/mL (≈ 51.5 µM) |  |  |  |  |
| CC[C@H](C)[C@H](NC(=O)[C@@H](Cc1ccccc1)NC)C(=O)N[C@@H](CO)C(=O)N[C@H](CCCCN)C(=O)N[C@@H](C(=O)N[C@H](C(=O)N[C@@H](CO)C(=O)N[C@H]1C(=O)N[C@@H](CCCCN)C(=O)N[C@@H](CCCCN)C(=O)N[C@@H]([C@@H](C)CC)C(=O)O[C@H]1C)[C@@H](C)CC)[C@@H](C)CC (H-[dNMeF]IS[dK][d(aIle)]IS[dT]KKI; ester 8-C) | 32 µg/mL (≈ 25.1 µM) | 1 µg/mL (≈ 0.785 µM) | 4 µg/mL (≈ 3.14 µM) | 64 µg/mL (≈ 50.3 µM) |  |  |  |  |
| CC[C@H](C)[C@H](NC(=O)[C@@H](Cc1ccccc1)NC)C(=O)N[C@@H](CO)C(=O)N[C@H](CCCCN)C(=O)N[C@@H](C(=O)N[C@H](C(=O)N[C@@H](CCCCN)C(=O)N[C@H]1C(=O)N[C@@H](CCCCN)C(=O)N[C@@H](CCCCN)C(=O)N[C@@H]([C@@H](C)CC)C(=O)O[C@H]1C)[C@@H](C)CC)[C@@H](C)CC (H-[dNMeF]IS[dK][d(aIle)]IK[dT]KKI; ester 8-C) | 32 µg/mL (≈ 24.3 µM) | 4 µg/mL (≈ 3.04 µM) | 256 µg/mL (≈ 195 µM) | 64 µg/mL (≈ 48.7 µM) |  |  |  |  |
| CC[C@H](C)[C@H](NC(=O)[C@@H](Cc1ccccc1)NC)C(=O)N[C@@H](CCCCN)C(=O)N[C@H](CCC(N)=O)C(=O)N[C@@H](C(=O)N[C@H](C(=O)N[C@@H](CCCCN)C(=O)N[C@H]1C(=O)N[C@@H](CCCCN)C(=O)N[C@@H](CCCCN)C(=O)N[C@@H]([C@@H](C)CC)C(=O)O[C@H]1C)[C@@H](C)CC)[C@@H](C)CC | 128 µg/mL (≈ 94.4 µM) | 8 µg/mL (≈ 5.9 µM) | 256 µg/mL (≈ 189 µM) | 256 µg/mL (≈ 189 µM) |  |  |  |  |
| CC[C@H](C)[C@H](NC(=O)[C@@H](CCCCN)NC)C(=O)N[C@@H](CO)C(=O)N[C@H](CCC(N)=O)C(=O)N[C@@H](C(=O)N[C@H](C(=O)N[C@@H](CO)C(=O)N[C@H]1C(=O)N[C@@H](C)C(=O)N[C@@H](CCCNC(=N)N)C(=O)N[C@@H]([C@@H](C)CC)C(=O)O[C@H]1C)[C@@H](C)CC)[C@@H](C)CC |  |  |  |  | inactive | inactive | inactive | inactive |
| CC[C@H](C)[C@H](NC(=O)[C@@H](Cc1ccccc1)NC)C(=O)N[C@@H](CCCCN)C(=O)N[C@H](CCCCN)C(=O)N[C@@H](C(=O)N[C@H](C(=O)N[C@@H](CCCCN)C(=O)N[C@H]1C(=O)N[C@@H](C)C(=O)N[C@@H](CCCNC(=N)N)C(=O)N[C@@H]([C@@H](C)CC)C(=O)O[C@H]1C)[C@@H](C)CC)[C@@H](C)CC | 32 µg/mL (≈ 24.1 µM) | 4 µg/mL (≈ 3.01 µM) | 32 µg/mL (≈ 24.1 µM) | 32 µg/mL (≈ 24.1 µM) |  |  |  |  |
| CC[C@H](C)[C@H](NC(=O)[C@@H](Cc1ccccc1)NC)C(=O)N[C@@H](CCCCN)C(=O)N[C@H](CCCCN)C(=O)N[C@@H](C(=O)N[C@H](C(=O)N[C@@H](CO)C(=O)N[C@H]1C(=O)N[C@@H](C)C(=O)N[C@@H](CCCCN)C(=O)N[C@@H]([C@@H](C)CC)C(=O)O[C@H]1C)[C@@H](C)CC)[C@@H](C)CC (H-[dNMeF]IK[dK][d(aIle)]IS[dT]AKI; ester 8-C) | 32 µg/mL (≈ 25.4 µM) | 1 µg/mL (≈ 0.795 µM) | 8 µg/mL (≈ 6.36 µM) | 32 µg/mL (≈ 25.4 µM) |  |  |  |  |
| CC[C@H](C)[C@H](NC(=O)[C@@H](Cc1ccccc1)NC)C(=O)N[C@@H](CO)C(=O)N[C@H](CCC(N)=O)C(=O)N[C@@H](C(=O)N[C@H](C(=O)N[C@@H](CO)C(=O)N[C@H]1C(=O)N[C@@H](C)C(=O)N[C@@H](CCCN)C(=O)N[C@@H]([C@@H](C)CC)C(=O)O[C@H]1C)[C@@H](C)CC)[C@@H](C)CC | 32 µg/mL (≈ 26.6 µM) | 0.25 µg/mL (≈ 0.208 µM) | 2 µg/mL (≈ 1.66 µM) | 256 µg/mL (≈ 213 µM) |  |  |  |  |
| CC[C@H](C)[C@H](NC(=O)[C@@H](Cc1ccccc1)NC)C(=O)N[C@@H](CO)C(=O)N[C@H](CN)C(=O)N[C@@H](C(=O)N[C@H](C(=O)N[C@@H](CN)C(=O)N[C@H]1C(=O)N[C@@H](CN)C(=O)N[C@@H](CCCCN)C(=O)N[C@@H]([C@@H](C)CC)C(=O)O[C@H]1C)[C@@H](C)CC)[C@@H](C)CC | 64 µg/mL (≈ 53.9 µM) | 16 µg/mL (≈ 13.5 µM) | 64 µg/mL (≈ 53.9 µM) | 64 µg/mL (≈ 53.9 µM) |  |  |  |  |
| CC[C@H](C)[C@H](NC(=O)[C@@H](Cc1ccccc1)NC)C(=O)N[C@@H](CO)C(=O)N[C@H](CCC(N)=O)C(=O)N[C@@H](C(=O)N[C@H](C(=O)N[C@@H](CO)C(=O)N[C@H]1C(=O)N[C@@H](C)C(=O)N2C[C@@H](N)C[C@H]2C(=O)N[C@@H]([C@@H](C)CC)C(=O)O[C@H]1C)[C@@H](C)CC)[C@@H](C)CC |  |  |  |  | inactive | inactive | inactive | inactive |
| CC[C@H](C)[C@H](NC(=O)[C@@H](Cc1ccccc1)NC)C(=O)N[C@@H](CO)C(=O)N[C@H](CCC(N)=O)C(=O)N[C@@H](C(=O)N[C@H](C(=O)N[C@@H](CO)C(=O)N[C@H]1C(=O)N[C@@H](C)C(=O)N[C@@H](CCN=C(N(C)C)N(C)C)C(=O)N[C@@H]([C@@H](C)CC)C(=O)O[C@H]1C)[C@@H](C)CC)[C@@H](C)CC |  | 4 µg/mL (≈ 3.11 µM) | 64 µg/mL (≈ 49.7 µM) |  | inactive | inactive |  |  |
| CC[C@H](C)[C@H](NC(=O)[C@@H](Cc1ccccc1)NC)C(=O)N[C@@H](CCCCN)C(=O)N[C@H](CCC(N)=O)C(=O)N[C@@H](C(=O)N[C@H](C(=O)N[C@@H](CO)C(=O)N[C@H]1C(=O)N[C@@H](C)C(=O)N[C@@H](CCCN)C(=O)N[C@@H]([C@@H](C)CC)C(=O)O[C@H]1C)[C@@H](C)CC)[C@@H](C)CC | 64 µg/mL (≈ 51.5 µM) | 2 µg/mL (≈ 1.61 µM) | 2 µg/mL (≈ 1.61 µM) | 256 µg/mL (≈ 206 µM) |  |  |  |  |
| CC[C@H](C)[C@H](NC(=O)[C@@H](Cc1ccccc1)NC)C(=O)N[C@@H](CN)C(=O)N[C@H](CCC(N)=O)C(=O)N[C@@H](C(=O)N[C@H](C(=O)N[C@@H](CO)C(=O)N[C@H]1C(=O)N[C@@H](CN)C(=O)N[C@@H](CCCCN)C(=O)N[C@@H]([C@@H](C)CC)C(=O)O[C@H]1C)[C@@H](C)CC)[C@@H](C)CC | 64 µg/mL (≈ 52 µM) | 4 µg/mL (≈ 3.25 µM) | 4 µg/mL (≈ 3.25 µM) | 64 µg/mL (≈ 52 µM) |  |  |  |  |
